Results published in ChEMBL document CHEMBL3879894, “Novel pharmaceutical composition for prevention and/or treatment of attention deficit/hyperactivity disorder” (2012).

Test system: Rattus norvegicus
Test: Prevention of attention deficit/hyperactivity in po dosed spontaneously hypertensive stroke-prone rat assessed as prolongation of cumulative entry latency administered for 30 mins by passive avoidance response test
Assay type: functional
Details: 0.5 h, read-out: MED

Structure (SMILES)	minimal effective dose
COc1ccc(Nc2nc(NCc3ncccn3)nc(Nc3ccc(F)cc3)n2)cc1	0.3 mg/kg
Fc1ccc(Nc2nc(NCc3ccncn3)nc(Nc3ccc(F)cc3)n2)cc1	0.03 mg/kg
Fc1ccc(Nc2nc(NCc3ncccn3)nc(Nc3ccc(F)cc3)n2)cc1	0.03 mg/kg
Fc1ccc(Nc2nc(NCc3ncccn3)nc(Nc3ccccc3)n2)cc1	0.1 mg/kg
Cl.Nc1nc(Nc2ccc(F)cc2)nc(N(Cc2ccnc(F)c2)c2ccccc2)n1	3 mg/kg

Test system: Rattus norvegicus
Test: Prevention of attention deficit/hyperactivity in sc dosed spontaneously hypertensive stroke-prone rat assessed as prolongation of cumulative entry latency administered for 30 mins by passive avoidance response test
Assay type: functional
Details: 0.5 h, read-out: MED

Structure (SMILES)	minimal effective dose
COC(=O)C(c1ccccc1)C1CCCCN1 (stereo unspecified) [METHYLPHENIDATE]	0.1 mg/kg
